Laboratory results taken from patent US9550775B2, “Substituted triazolopyridines and methods of use thereof” (GENENTECH, INC., priority 2013, dated 2017).

What follows are compounds tested against hNav1.7 (Homo sapiens (Human), UniProt Q15858) (assay: Tritiated sulfonamide competitive binding to membranes from cells expressing hNav1.7 and the β1 subunit). Conditions: 100 pM [3H]compound, 18 h, room temperature; inactivated state of NaV1.7 membrane binding; read-out: NaV1.7 Ligand Binding Assay (IC50).
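Further: displacement of the tritiated ligand from recombinant cell membranes, read by liquid scintillation counting of filter-bound radioactivity, nonspecific binding defined with 1 µM unlabelled compound.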

Sequence of hNav1.7 (Q15858 other isoform, or with tags, fused parts or gaps): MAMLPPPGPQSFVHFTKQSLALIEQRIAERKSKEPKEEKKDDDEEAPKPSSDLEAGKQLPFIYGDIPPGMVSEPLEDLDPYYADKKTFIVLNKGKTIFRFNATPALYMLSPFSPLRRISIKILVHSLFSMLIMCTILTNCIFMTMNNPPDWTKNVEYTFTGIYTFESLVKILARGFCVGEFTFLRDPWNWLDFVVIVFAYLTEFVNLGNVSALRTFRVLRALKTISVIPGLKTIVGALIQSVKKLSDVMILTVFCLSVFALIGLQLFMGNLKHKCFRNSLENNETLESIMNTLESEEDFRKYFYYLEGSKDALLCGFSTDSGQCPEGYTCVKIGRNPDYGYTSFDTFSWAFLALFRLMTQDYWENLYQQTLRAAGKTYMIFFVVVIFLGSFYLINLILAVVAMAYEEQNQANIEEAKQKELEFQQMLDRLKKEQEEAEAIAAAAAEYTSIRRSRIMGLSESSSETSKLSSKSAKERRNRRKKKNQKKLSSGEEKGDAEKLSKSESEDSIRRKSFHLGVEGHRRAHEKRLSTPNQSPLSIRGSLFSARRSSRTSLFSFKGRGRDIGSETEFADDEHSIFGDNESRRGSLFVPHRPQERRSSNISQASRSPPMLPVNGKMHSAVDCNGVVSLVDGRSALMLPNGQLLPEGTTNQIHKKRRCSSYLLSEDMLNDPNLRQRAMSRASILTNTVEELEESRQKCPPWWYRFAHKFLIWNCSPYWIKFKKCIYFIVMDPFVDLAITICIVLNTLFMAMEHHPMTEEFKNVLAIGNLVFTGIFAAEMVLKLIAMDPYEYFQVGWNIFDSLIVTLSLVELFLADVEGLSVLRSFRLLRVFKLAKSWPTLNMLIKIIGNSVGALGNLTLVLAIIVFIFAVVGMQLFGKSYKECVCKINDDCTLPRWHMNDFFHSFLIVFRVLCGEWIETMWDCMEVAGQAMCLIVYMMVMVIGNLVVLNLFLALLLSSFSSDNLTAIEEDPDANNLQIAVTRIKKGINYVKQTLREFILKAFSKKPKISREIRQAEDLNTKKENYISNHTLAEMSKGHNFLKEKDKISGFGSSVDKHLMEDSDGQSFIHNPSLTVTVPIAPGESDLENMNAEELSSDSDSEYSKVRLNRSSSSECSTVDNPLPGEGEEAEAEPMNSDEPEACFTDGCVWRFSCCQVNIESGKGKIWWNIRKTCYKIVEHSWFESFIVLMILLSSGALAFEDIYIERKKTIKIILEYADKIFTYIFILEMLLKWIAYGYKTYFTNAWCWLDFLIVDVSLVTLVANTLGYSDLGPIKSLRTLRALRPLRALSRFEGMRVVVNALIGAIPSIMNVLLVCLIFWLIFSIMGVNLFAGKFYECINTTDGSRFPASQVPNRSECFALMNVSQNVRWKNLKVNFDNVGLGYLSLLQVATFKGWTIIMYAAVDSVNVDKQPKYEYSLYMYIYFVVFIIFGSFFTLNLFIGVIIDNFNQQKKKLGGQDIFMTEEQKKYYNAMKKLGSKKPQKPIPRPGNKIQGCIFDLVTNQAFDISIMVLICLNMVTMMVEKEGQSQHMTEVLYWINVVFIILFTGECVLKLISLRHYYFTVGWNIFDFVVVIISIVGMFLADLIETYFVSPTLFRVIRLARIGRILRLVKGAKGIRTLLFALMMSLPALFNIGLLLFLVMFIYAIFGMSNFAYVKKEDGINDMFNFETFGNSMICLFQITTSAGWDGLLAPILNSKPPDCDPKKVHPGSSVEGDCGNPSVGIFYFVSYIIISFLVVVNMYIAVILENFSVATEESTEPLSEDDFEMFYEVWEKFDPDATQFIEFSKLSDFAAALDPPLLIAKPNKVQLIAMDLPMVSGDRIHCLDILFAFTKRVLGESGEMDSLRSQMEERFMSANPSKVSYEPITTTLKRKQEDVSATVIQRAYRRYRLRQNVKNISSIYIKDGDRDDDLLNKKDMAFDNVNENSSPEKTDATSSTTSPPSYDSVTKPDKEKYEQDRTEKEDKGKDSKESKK
Sequence of hNav1.7 (Q07699 19-218 partner): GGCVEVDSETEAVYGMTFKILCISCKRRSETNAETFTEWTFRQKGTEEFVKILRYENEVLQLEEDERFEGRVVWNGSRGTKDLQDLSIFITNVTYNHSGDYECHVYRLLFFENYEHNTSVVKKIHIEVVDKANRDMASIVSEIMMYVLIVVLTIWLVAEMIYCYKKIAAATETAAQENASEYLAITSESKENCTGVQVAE

SMILES	IC50
O=S(=O)(Nc1nnc2cc(OC3C4CC5CC(C4)CC3C5)c(C3CC3)cn12)C1CC1 (stereo not drawn) [Example 79, N-(7-(adamantan-2-yloxy)-6-cyclopropyl-[1,2,4]triazolo-[4,3-a]pyridin-3-yl)cyclopropanesulfonamide]	66 nM
CS(=O)(=O)Nc1nnc2cc(OCC3CC4C5CCC(C5)C4C3)c(C3CC3)cn12 [Example 80, N-(6-cyclopropyl-7-(((2s,3aR,4S,7R,7aS)-octahydro-1H-4,7-methanoinden-2-yl)methoxy)-[1,2,4]triazolo[4,3-a]pyridin-3-yl)methanesulfonamide]	5 nM
CC1(C)[C@H]2CC[C@H](COc3cc4nnc(NS(C)(=O)=O)n4cc3C3CC3)[C@@H]1C2 [Example 83]	3 nM
CC1(C)[C@H]2CC[C@H](COc3cc4nnc(NS(=O)(=O)N5CCC5)n4cc3C3CC3)[C@@H]1C2 [Example 85, N-(6-cyclopropyl-7-(((1S,2S,5S)-6,6dimethylbicyclo [3.1.1]heptan-2-yl)methoxy)-[1,2,4]triazolopyridin-3-yl)azetidine-1-sulfonamide]	7 nM
CS(=O)(=O)Nc1nnc2cc(OC[C@H]3CC[C@H](C)CC3)c(Br)cn12 [Example 87]	87 nM
CS(=O)(=O)Nc1nnc2cc(OC[C@H]3CC[C@H](C)CC3)c(C3CC3)cn12 [Example 88]	18 nM
O=S(=O)(Nc1nnc2cc(OC3CCC4(CCCCC4)CC3)c(C3CC3)cn12)C1CC1 [Example 90, N-(6-cyclopropyl-7-(spiro[5.5]undecan-3-yloxy)-[1,2,4]triazolo[4,3-a]pyridin-3-yl)cyclopropanesulfonamide]	51 nM
CS(=O)(=O)Nc1nnc2cc(OCC3(C(F)(F)F)CCCC3)c(C3CC3)cn12 [Example 92, N-(6-cyclopropyl-7-((1-(trifluoromethyl)cyclopentyl)methoxy)-[1,2,4]triazolo[4,3-a]pyridin-3-yl)methanesulfonamide]	45 nM
O=S(=O)(Nc1nnc2cc(COc3ccc(Cl)c(Cl)c3)c(C3CC3)cn12)C1CC1 [Example 94, N-(6-cyclopropyl-7-((3,4-dichlorophenoxy)methyl)-[1,2,4]-triazolo[4,3-a]pyridin-3-yl)cyclopropanesulfonamide]	7 nM
O=S(=O)(Nc1nnc2cc(COc3ccc(Cl)c(Cl)c3)c(C3CC3)cn12)N1CCC1 [Example 96, N-(6-cyclopropyl-7-((3,4-dichlorophenoxy)methyl)-[1,2,4]triazolo[4,3-a]pyridin-3-yl)azetidine-1-sulfonamide]	19 nM
O=S(=O)(Nc1nnc2cc(COc3cc(Cl)cc(OC(F)(F)F)c3)c(C3CC3)cn12)C1CC1 [Example 97, N-(7-((3-chloro-5-(trifluoromethoxy)phenoxy)methyl)-6-cyclopropyl-[1,2,4]triazolo[4,3-a]pyridin-3-yl)cyclopropanesulfonamide]	3 nM
CS(=O)(=O)Nc1nnc2cc(COc3cc(Cl)cc(OC(F)(F)F)c3)c(C3CC3)cn12 [Example 98, N-(7-((3-chloro-5-(trifluoromethoxy)phenoxy)methyl)-6-cyclopropyl-[1,2,4]triazolo[4,3-a]pyridin-3-yl)methanesulfonamide]	3 nM
Cc1cc(Cl)cc(OCc2cc3nnc(NS(C)(=O)=O)n3cc2C2CC2)c1 [Example 102, N-(7-((3-chloro-5-methylphenoxy)methyl)-6-cyclopropyl-[1,2,4]triazolo[4,3-a]pyridin-3-yl)methanesulfonamide]	7 nM
Cc1cc(Cl)cc(OCc2cc3nnc(NS(=O)(=O)C4CC4)n3cc2C2CC2)c1 [Example 103, N-(7-((3-chloro-5-methylphenoxy)methyl)-6-cyclopropyl-[1,2,4]triazolo[4,3-a]pyridin-3-yl)cyclopropanesulfonamide]	6 nM
CC1(S(=O)(=O)Nc2nnc3cc(COc4cc(Cl)cc(OC(F)(F)F)c4)c(C4CC4)cn23)CC1 [Example 104, N-(7-((3-chloro-5-(trifluoromethoxy)phenoxy)methyl)-6-cyclopropyl-[1,2,4]triazolo[4,3-a]pyridin-3-yl)-1-methylcyclopropane-1-sulfonamide]	4 nM
CC1(S(=O)(=O)Nc2nnc3cc(COc4cc(Cl)cc(Cl)c4)c(C4CC4)cn23)CC1 [Example 105, N-(6-cyclopropyl-7-((3,5-dichlorophenoxy)methyl)-[1,2,4]-triazolo[4,3-a]pyridin-3-yl)-1-methylcyclopropane-1-sulfonamide]	5 nM
CC1(COc2cc3nnc(NS(=O)(=O)C4CC4)n3cc2C2CC2)CCC(F)(F)CC1 [Example 108, N-(6-cyclopropyl-7-((4,4-difluoro-1-methylcyclohexyl)methoxy)-[1,2,4]triazolo[4,3-a]pyridin-3-yl)cyclopropanesulfonamide]	67 nM
CC1(COc2cc3nnc(NS(C)(=O)=O)n3cc2C2CC2)CCN(Cc2cc(Cl)cc(Cl)c2)CC1 [Example 110, N-(6-cyclopropyl-7-((1-(3,5-dichlorobenzyl)-4-methylpiperidin-4-yl)methoxy)-[1,2,4]triazolopyridin-3-yl)methanesulfonamide]	12 nM
CC1(COc2cc3nnc(NS(=O)(=O)C4CC4)n3cc2C2CC2)CCN(Cc2cc(Cl)cc(Cl)c2)CC1 [Example 111, N-(6-cyclopropyl-7-((1-(3,5-dichlorobenzyl)-4-methylpiperidin-4-yl)methoxy)-[1,2,4]triazolo[4,3-a]pyridin-3-yl)cyclopropanesulfonamide]	8 nM
CS(=O)(=O)Nc1nnc2cc(O[C@@H]3CCCN(Cc4ccc(F)cc4Cl)C3)c(C3CC3)cn12 [Example 112, (R)—N-(7-((1-(2-chloro-4-fluorobenzyl)piperidin-3-yl)oxy)-6-cyclopropyl-[1,2,4]triazolo[4,3-a]pyridin-3-yl)methanesulfonamide]	130 nM
CS(=O)(=O)Nc1nnc2cc(OC[C@@H]3C[C@H]4CC[C@@H](C3)N4C(c3ccccc3)c3ccccc3)c(C3CC3)cn12 [Example 123, N-(7-(((1R,3S,5S)-8-benzhydryl-8-azabicyclo[3.2.1]octan-3-yl)methoxy)-6-cyclopropyl-[1,2,4]triazolo[4,3-a]pyridin-3-yl)methanesulfonamide]	17 nM

The remaining lines, values ahead:

IC50	SMILES
34 nM	O=S(=O)(Nc1nnc2cc(O[C@@H]3CCCN(Cc4ccc(F)cc4Cl)C3)c(C3CC3)cn12)C1CC1 [Example 113, (R)—N-(7-((1-(2-chloro-4-fluorobenzyl)piperidin-3-yl)oxy)-6-cyclopropyl-[1,2,4]triazolo[4,3-a]pyridin-3-yl)cyclopropanesulfonamide]
8 nM	CC1(COc2cc3nnc(NS(=O)(=O)C4CC4)n3cc2C2CC2)CCC2(CC1)CC2 [Example 114, N-(6-cyclopropyl-7-((6-methylspiro[2.5]octan-6-yl)methoxy)-[1,2,4]triazolo[4,3-a]pyridin-3-yl)cyclopropanesulfonamide]
16 nM	CC1(COc2cc3nnc(NS(C)(=O)=O)n3cc2C2CC2)CCN(C(c2ccccc2)c2ccccc2)CC1 [Example 116, N-(7-((1-benzhydryl-4-methylpiperidin-4-yl)methoxy)-6-cyclopropyl-[1,2,4]triazolo[4,3-a]pyridin-3-yl)methanesulfonamide]
13 nM	C[C@@H](c1cc(Cl)cc(Cl)c1)N1CCC(C)(COc2cc3nnc(NS(C)(=O)=O)n3cc2C2CC2)CC1 [Example 117, (S)—N-(6-cyclopropyl-7-((1-(1-(3,5-dichlorophenyl)ethyl)-4-methylpiperidin-4-yl)methoxy)-[1,2,4]triazolo[4,3-a]pyridin-3-yl)methanesulfonamide]
14 nM	C[C@H](c1cc(Cl)cc(Cl)c1)N1CCC(C)(COc2cc3nnc(NS(C)(=O)=O)n3cc2C2CC2)CC1 [Example 118, (R)—N-(6-cyclopropyl-7-((1-(1-(3,5-dichlorophenyl)ethyl)-4-methylpiperidin-4-yl)methoxy)-[1,2,4]triazolo[4,3-a]pyridin-3-yl)methanesulfonamide]
23 nM	C[C@H](c1cc(Cl)cc(Cl)c1)N1CCC(COc2cc3nnc(NS(C)(=O)=O)n3cc2C2CC2)CC1 [Example 119, (R)—N-(6-cyclopropyl-7-((1-(1-(3,5-dichlorophenyl)ethyl)piperidin-4-yl)methoxy)-[1,2,4]triazolo[4,3-a]pyridin-3-yl)methanesulfonamide]
12 nM	C[C@@H](c1cc(Cl)cc(Cl)c1)N1CCC(COc2cc3nnc(NS(=O)(=O)C4CC4)n3cc2C2CC2)CC1 [Example 121]
2 nM	CC12CC3(C)CC(C)(C1)CC(COc1cc4nnc(NS(C)(=O)=O)n4cc1C1CC1)(C2)C3 [Example 122, N-(6-cyclopropyl-7-((3,5,7-trimethyladamantan-1-yl)methoxy)-[1,2,4]triazolo[4,3-a]pyridin-3-yl)methanesulfonamide]
320 nM	O=S(=O)(Nc1nnc2cc(CN3CCC(Oc4cc(Cl)cc(Cl)c4)CC3)c(C3CC3)cn12)C1CC1 [Example 124, N-(6-cyclopropyl-7-((4-(3,5-dichlorophenoxy)piperidin-1-yl)methyl)-[1,2,4]triazolo[4,3-a]pyridin-3-yl)cyclopropanesulfonamide]
31 nM	CCc1cn2c(NS(=O)(=O)N3CCC3)nnc2cc1OCC12CC3CC(CC(C3)C1)C2 [Example 126, N-(7-(adamantan-1-ylmethoxy)-6-ethyl-[1,2,4]triazolo[4,3-a]pyridin-3-yl)azetidine-1-sulfonamide]
9 nM	O=S(=O)(Nc1nnc2cc(OCC34CC5CC(CC(C5)C3)C4)c(C3CC3)cn12)N1CCC1 [Example 127, N-(7-(adamantan-1-ylmethoxy)-6-cyclopropyl-[1,2,4]triazolo[4,3-a]pyridin-3-yl)azetidine-1-sulfonamide]
45 nM	C=Cc1cn2c(NS(C)(=O)=O)nnc2cc1OCC12CC3CC(CC(C3)C1)C2 [Example 128, N-(7-(adamantan-1-ylmethoxy)-6-vinyl-[1,2,4]triazolo[4,3-a]-pyridin-3-yl)methanesulfonamide]
